Data taken from PubChem BioAssay (NCI).
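Assay format: 96-well plates, 48-hour exposure. Definition used: TGI = concentration required for complete inhibition of growth.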

Assays:
Experiment in all cases: growth of human tumour cells (NCI), 48 h
786-0 renal = tested on: 786-0 renal
CAKI-1 renal = tested on: CAKI-1 renal
EKVX NSCLC = tested on: EKVX NSCLC
KM12 colon = tested on: KM12 colon
MOLT-4 leukemia = tested on: MOLT-4 leukemia
NCI/ADR-RES ovarian = tested on: NCI/ADR-RES ovarian
OVCAR-5 ovarian = tested on: OVCAR-5 ovarian
SK-MEL-2 melanoma = tested on: SK-MEL-2 melanoma
SK-MEL-28 melanoma = tested on: SK-MEL-28 melanoma
SK-MEL-5 melanoma = tested on: SK-MEL-5 melanoma
SK-OV-3 ovarian = tested on: SK-OV-3 ovarian
SNB-19 CNS = tested on: SNB-19 CNS
SNB-75 CNS = tested on: SNB-75 CNS
BT-549 breast = tested on: BT-549 breast
HL-60(TB) leukemia = tested on: HL-60(TB) leukemia
HT29 colon = tested on: HT29 colon

Row | SMILES | TGI (786-0 renal) | TGI (CAKI-1 renal) | TGI (EKVX NSCLC) | TGI (KM12 colon) | TGI (MOLT-4 leukemia) | TGI (NCI/ADR-RES ovarian) | TGI (OVCAR-5 ovarian) | TGI (SK-MEL-2 melanoma) | TGI (SK-MEL-28 melanoma) | TGI (SK-MEL-5 melanoma) | TGI (SK-OV-3 ovarian) | TGI (SNB-19 CNS) | TGI (SNB-75 CNS) | TGI (BT-549 breast) | TGI (HL-60(TB) leukemia) | TGI (HT29 colon)
1 | Cc1cccc(-c2cc(=S)c3cc(N4CCCC4)ccc3[nH]2)c1 | > 100 µM | > 100 µM | > 100 µM | > 100 µM | > 100 µM | > 100 µM | > 100 µM | > 100 µM | > 100 µM | > 100 µM | > 100 µM | > 100 µM | > 100 µM | – | – | –
2 | ClC1=C(Cc2ccccc2)Cc2ccc3c(c21)CCC3 | 89.1 µM | 69.7 µM | > 100 µM | 39.2 µM | 39.8 µM | – | > 100 µM | – | > 100 µM | 40.6 µM | > 100 µM | 52 µM | – | 67.5 µM | 41.5 µM | 50.9 µM
3 | COc1ccc2oc(C(=O)N3CC(CCl)c4ccc([N+](=O)[O-])cc43)cc2c1 (centres undefined) | 46 µM | 45.6 µM | > 100 µM | > 100 µM | – | > 100 µM | – | > 100 µM | > 100 µM | > 100 µM | 48.7 µM | > 100 µM | 79.3 µM | > 100 µM | – | –
4 | O=C(O)CC/C(=N\Nc1nsc2ccccc12)c1ccc(Cl)cc1 | > 100 µM | 52.2 µM | > 100 µM | > 100 µM | 73.5 µM | – | > 100 µM | > 100 µM | 37.4 µM | > 31.6 µM | 89.6 µM | > 100 µM | 73.1 µM | 74.3 µM | 59.9 µM | > 78.1 µM
5 | COc1ccc([C@H]2CC(=O)NCCCCN2)cc1 | > 100 µM | > 100 µM | > 100 µM | > 100 µM | > 100 µM | – | > 100 µM | > 100 µM | > 100 µM | > 100 µM | > 100 µM | > 100 µM | > 100 µM | – | – | > 100 µM
6 | O=C(O)c1ccc(C(c2c(O)c3ccccc3oc2=O)c2c(O)c3ccccc3oc2=O)cc1 | > 100 µM | > 100 µM | – | > 100 µM | > 100 µM | > 100 µM | > 100 µM | > 100 µM | > 100 µM | > 100 µM | > 100 µM | > 100 µM | – | > 100 µM | 0.129 µM | > 100 µM
7 | COc1ccc2c(c1)OC[C@@H]1c3cc4c(cc3O[C@H]21)OCO4 | > 100 µM | > 100 µM | > 100 µM | > 100 µM | > 100 µM | – | > 100 µM | > 100 µM | > 100 µM | > 100 µM | > 100 µM | > 100 µM | 69.2 µM | – | > 100 µM | > 100 µM
8 | Cc1[nH]c(=O)nc(NCCNCCO)c1C(=O)Nc1c2ccccc2nc2ccccc12 | > 100 µM | > 100 µM | > 100 µM | > 100 µM | > 100 µM | > 100 µM | > 100 µM | > 100 µM | > 100 µM | > 100 µM | > 100 µM | > 100 µM | > 100 µM | – | > 100 µM | > 100 µM
